Source: article PMC8776228 (International Journal of Molecular Sciences, 2022)
Converted amounts (≈) assume the structure as drawn. “And” between values parts separate entries of the source, which are not always exact repeats. Equal entries are not always repeated. Where two headings read alike, the source gives them in different places.

Columns and labels:
M. tuberculosis H37Rv [1] = tested on: M. tuberculosis H37Rv
M. smegmatis DprE1 L282F = M. smegmatis DprE1 L282F (Mycolicibacterium smegmatis, UniProt A0R607, L274F/L282F); test: biochemical
M. abscessus = conditions: cited from earlier work
M. tuberculosis H37Rv [2] = test: microbe, parasite or virus in culture; type: cell-based; conditions: Mycobacterium tuberculosis
M. smegmatis DprE1 C394A [3] = molecular target: T1, M. smegmatis DprE1 C394A (Mycolicibacterium smegmatis, UniProt A0R607, C386A); test: biochemical
[4] = tested on: M. smegmatis mc^2155-pJV53H DprE1 L282F
M. smegmatis DprE1 [5] = molecular target: T2, M. smegmatis DprE1 (Mycolicibacterium smegmatis, UniProt A0R607); test: biochemical; set-up: species or system Mycobacterium smegmatis
M. smegmatis DprE1 L282V = M. smegmatis DprE1 L282V (Mycolicibacterium smegmatis, UniProt A0R607, L274V/L282V); test: biochemical
M. smegmatis DprE1 C394S [6] = molecular target: T3, M. smegmatis DprE1 C394S (Mycolicibacterium smegmatis, UniProt A0R607, C386S); test: biochemical
M. tuberculosis H37Rv [7] = tested on: M. tuberculosis H37Rv; remark: listed apart in the source
M. smegmatis DprE1 C394S [8] = molecular target: T3, M. smegmatis DprE1 C394S
M. smegmatis mc^2155 [9] = test: microbe, parasite or virus in culture; type: cell-based, Mycobacterium smegmatis; conditions: Mycolicibacterium smegmatis
M. tuberculosis = conditions: cited from earlier work
M. avium = conditions: cited from earlier work
M. bovis = conditions: cited from earlier work
M. smegmatis = conditions: cited from earlier work
[10] = tested on: M. smegmatis mc^2155-pJV53H DprE1 L282V
M. smegmatis mc^2155 [11] = tested on: M. smegmatis mc^2155
M. smegmatis DprE1 C394A [12] = molecular target: T1, M. smegmatis DprE1 C394A
M. kansasii = conditions: cited from earlier work
M. smegmatis DprE1 [13] = molecular target: T2, M. smegmatis DprE1; conditions: cited from earlier work

Compound: CO[C@H]1C[C@H](O[C@@H]2/C(C)=C/C[C@@H]3C[C@@H](C[C@]4(CC[C@H](C)[C@@H](C5CCCCC5)O4)O3)OC(=O)[C@@H]3C=C(C)/C(=N/O)[C@H]4OC/C(=C\C=C\[C@@H]2C)[C@]43O)O[C@@H](C)[C@@H]1O [Selamectin]
- ^14C uptake (M. tuberculosis H37Rv [1]): general decrease
- changes in lipid composition associated with inhibition of arabinan synthesis (M. tuberculosis H37Rv [1]): did not result in significant changes
- IC50 (M. smegmatis DprE1 L282F): 1 ± 0.7 µM
- MIC (M. abscessus): > 32 µg/mL
- MIC (M. tuberculosis H37Rv [2]; read-out: MIC SEL): 4 µg/mL (≈ 5.19 µM)
- IC50 (M. smegmatis DprE1 C394A [3]): 3.9 ± 1 µM
- change in susceptibility compared to wild-type M. smegmatis (MIC) [4]: no changes in their susceptibilities
- IC50 (M. smegmatis DprE1 [5]; IC50): ~2.6 µM and 2.6 µM
- IC50 (M. smegmatis DprE1 L282V): 50.6 ± 9.2 µM
- IC50 (M. smegmatis DprE1 C394S [6]): 12.1 ± 1.2 µM
- day at which the limit of detection (1-log CFU/mL) was reached (M. tuberculosis H37Rv [7]): 22 day
- IC50 compared to the wild type enzyme (M. smegmatis DprE1 C394S [8]): slightly higher
- MIC (M. smegmatis mc^2155 [9]; MC^2155, read-out: MIC SEL): 4 µg/mL (≈ 5.19 µM)
- MIC (M. tuberculosis): 2 to 4 µg/mL
- MIC (M. avium): 16 µg/mL (≈ 20.8 µM)
- MIC (M. bovis): 2 to 4 µg/mL
- day at which the limit of detection (1-log CFU/mL) was reached (M. tuberculosis NTB1): 11 day
- time–kill activity against NTB1 compared to H37Rv (M. tuberculosis NTB1): more active
- MIC (M. smegmatis): 2 to 4 µg/mL
- change in susceptibility compared to wild-type M. smegmatis (MIC) [10]: no changes in their susceptibilities
- ^14C uptake (M. smegmatis mc^2155 [11]): general decrease
- changes in lipid composition associated with inhibition of arabinan synthesis (M. smegmatis mc^2155 [11]): did not result in significant changes
- IC50 compared to the wild type enzyme (M. smegmatis DprE1 C394A [12]): in the same range
- MIC (M. kansasii): 0.5 µg/mL (≈ 0.649 µM)

Compound: CO/N=C1\C[C@]2(C[C@@H]3C[C@@H](C/C=C(\C)C[C@@H](C)/C=C/C=C4\CO[C@@H]5[C@H](O)C(C)=C[C@@H](C(=O)O3)[C@]45O)O2)O[C@H](/C(C)=C/C(C)C)[C@H]1C [Moxidectin]
- IC50 (M. smegmatis DprE1 [5]): 6.1 ± 0.9 µM

Compound: C[C@H]1COC2(CCN(c3nc(=O)c4cc(C(F)(F)F)cc([N+](=O)[O-])c4s3)CC2)O1 [BTZ043]
- IC50 (M. smegmatis DprE1 [13]): 0.004 µM
- MIC (M. tuberculosis H37Rv [2]; read-out: MIC BTZ043): 0.001 µg/mL (≈ 0.00232 µM)
- MIC (M. smegmatis mc^2155 [9]; MC^2155, read-out: MIC BTZ-043): 0.008 µg/mL (≈ 0.0185 µM)

Compound: Ivermectin
- IC50 (M. smegmatis DprE1 [5]; read-out: IC50): 13.2 ± 3.3 µM

Compound: Milbemycin oxime
- IC50 (M. smegmatis DprE1 [5]; read-out: IC50): 25.5 ± 5.6 µM

Compound: NNC(=O)c1ccncc1 [INH, isoniazid]
- MIC (M. tuberculosis H37Rv [2]; read-out: MIC INH): 0.025 µg/mL (≈ 0.182 µM)
